Data as given in US20180209956A1, “HTS Assay for Identifying Small Molecule Inhibitors of RAD52 and Uses of Identified Small Molecule Inhibitors for Treatment and Prevention of BRCA-Deficient Malignancies” (University of Iowa Research Foundation, priority 2015, published 2018).

Assays:
[1] = molecular target: T1, RAD52-dsDNA interaction (Homo sapiens, UniProt P43351); assay: FRET-based RAD52-dsDNA binding assay; conditions: 1 nM dsDNA, 10 nM RAD52
T1 construct: made in house
T1 sequence (P43351 1-418): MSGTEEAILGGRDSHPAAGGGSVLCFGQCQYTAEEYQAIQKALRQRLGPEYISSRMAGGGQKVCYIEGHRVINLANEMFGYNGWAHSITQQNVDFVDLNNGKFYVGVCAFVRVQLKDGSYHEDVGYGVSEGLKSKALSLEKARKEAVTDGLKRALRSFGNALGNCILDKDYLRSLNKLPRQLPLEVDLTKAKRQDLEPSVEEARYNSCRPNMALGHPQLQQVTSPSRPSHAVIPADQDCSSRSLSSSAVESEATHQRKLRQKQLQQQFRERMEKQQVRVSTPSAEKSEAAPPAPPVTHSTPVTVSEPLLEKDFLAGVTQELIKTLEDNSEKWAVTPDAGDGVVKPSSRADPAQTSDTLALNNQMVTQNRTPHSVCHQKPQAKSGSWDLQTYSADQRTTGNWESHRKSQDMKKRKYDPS
Excerpt: These assays utilize two complementary single stranded 28-nucleotide-long substrates, which contain either Cy3 (T-28) or Cy5 (P-28) incorporated into the middle of the respective DNA strand. When the substrates are annealed by RAD52, the Cy3 and Cy5 dyes are separated by 3 base pairs and yield a high FRET signal (FIG. 2 Supplement 2). […] The annealing reactions were initiated by mixing two half reactions and observing the change in FRET over time in the presence of varying concentrations of small molecules. An increasing FRET value over time indicates formation of the dsDNA duplex which brings the two dyes in close proximity (FIG. 2 Supplement 2). Fitting the annealing data to a double exponential allowed us to calculate and compare the final extent of annealing at varying concentrations of each compound compared to RAD52 alone. We plotted the final extent of annealing vs the concentration of the compound and calculated an IC50 of annealing inhibition.
where FRET0 is the initial FRET value of RAD52-ssDNA complex in the absence of the compound and FRETmin is the FRET value at complete inhibition. FRET values were calculated as an average of three or more independent annealing reactions plotted against the concentration of the compound. […]

[2] = molecular target: T2, interaction between RAD52 and RPA proteins (Homo sapiens, UniProt P43351); assay: Ni-NTA pull-down of RAD52 and RPA; assay type: binding; conditions: 3 μM RAD52, 3 μM RPA, 3 μM compound
T2 construct: made in house

[3] = molecular target: T3, RAD52 (Homo sapiens, UniProt P43351); assay: WaterLOGSY NMR analysis of compound binding to RAD52; design: made in house; conditions: 20 or 40 μM compound, 3.3 μM RAD52
T3 sequence (P43351 1-418): T1 sequence (P43351 1-418)
Method: In WaterLOGSY spectrum, if a compound binds to a protein, the compound will receive negative nuclear Overhauser effects (NOEs) due to the slow tumbling of the protein-compound complex, leading to a positive WaterLOGSY peak.
WaterLOGSY NMR analysis of the compound binding to RAD52 and RPA proteins: Compound binding to RAD52 and RPA proteins was analyzed using water-ligand observation with gradient spectroscopy (WaterLOGSY) NMR experiments (Dalvit et al., 2001, Dalvit et al., 2000). The WaterLOGSY spectra of compounds in the presence of RAD52 or RPA were acquired using a water NOE mixing time of 1 s and a T2 relaxation filter of 50 ms just before data acquisition to suppress the broad signals derived from protein. The protein buffer used in the experiments contains 10 mM Tris-d11, 75 mM KCl, 0.25 mM EDTA, pH 7.5, and 10% D20. All NMR data were acquired on a Bruker Avance II 800 MHz NMR spectrometer equipped with a sensitive cryoprobe and recorded at 25° C. The ^1H chemical shifts were referenced to 2,2-dimethyl-2-silapentane-5-sulfonate (DSS). NMR spectra were processed using NMR Pipe (Delaglio et al., 1995) and analysed using NMR View (Johnson and Blevins, 1994).

[4] = tested on: GM01604 cells; assay: LIVE/DEAD cell viability assay; assay type: cell-based, human; conditions: for Dead cells: MUS81-depleted cells
Method: Cell Viability Live/Dead Assays: GM01604 cells were transfected with siRNAs directed against GFP (Ctrl), or against MUS81 (Qiagen), BRCA2 (Sigma-Aldrich), and RAD52 (Qiagen) 48 hours prior to addition of 1 μM ‘1’. Where indicated, the conditions of pathological replication were induced by treating cells with 2 mM HU and 300 nM UCN01 for 6 h or by a 18 hours treatment with 2 mM HU, in the presence or absence of ‘1’. Viability was evaluated by the LIVE/DEAD assay (Sigma-Aldrich) according to the manufacturer's instructions. Cell number was counted in randomly chosen fields and expressed as percent of dead cells (number of red nuclear stained cells divided by the total cell number) corrected for the cell loss observed in the population. For each time point, at least 200 cells were counted.

[5] = tested on: GM01604 cells; assay: Anaphase bridges after aphidicolin (MUS81 activity); assay type: cell-based, human; conditions: aphidicolin 24 h, increasing concentration of compound
Method: Forty eight hours after transfection the fibroblasts were lysed and analysed by WB with the indicated antibodies. b) Forty eight hours after transfection, GM01604 cells were exposed to […] aphidicolin (APH) for 24 h in the presence (grey bars) or absence (white bars) of increasing concentration of ‘1’ added in the last 3 h before aphidicolin treatment. Results are presented as mean±SEM from two independent replicates. c) The presence of anaphase bridges, as shown in the representative images, was scored in DAPI-stained cells. The white bars indicate 10 μm.

T2 sequence (P27694 whole entry partner, one chain of several): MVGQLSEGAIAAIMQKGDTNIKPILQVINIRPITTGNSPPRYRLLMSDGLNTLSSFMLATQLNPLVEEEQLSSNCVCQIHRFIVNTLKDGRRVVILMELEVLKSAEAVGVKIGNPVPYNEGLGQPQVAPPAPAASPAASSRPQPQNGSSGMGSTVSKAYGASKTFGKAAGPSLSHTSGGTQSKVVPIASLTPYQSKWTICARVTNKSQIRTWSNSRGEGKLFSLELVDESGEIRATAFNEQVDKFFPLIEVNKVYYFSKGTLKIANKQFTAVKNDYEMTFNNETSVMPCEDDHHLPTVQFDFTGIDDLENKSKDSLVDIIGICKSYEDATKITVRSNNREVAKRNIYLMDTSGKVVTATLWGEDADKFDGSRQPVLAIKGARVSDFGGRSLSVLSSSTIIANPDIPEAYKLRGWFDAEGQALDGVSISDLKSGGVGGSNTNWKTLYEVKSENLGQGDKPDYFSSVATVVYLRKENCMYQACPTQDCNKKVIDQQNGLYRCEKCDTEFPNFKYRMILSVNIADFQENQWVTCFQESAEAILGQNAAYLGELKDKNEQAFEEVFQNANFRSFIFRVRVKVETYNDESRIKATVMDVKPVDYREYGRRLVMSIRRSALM
T2 sequence (P15927 whole entry partner, one chain of several): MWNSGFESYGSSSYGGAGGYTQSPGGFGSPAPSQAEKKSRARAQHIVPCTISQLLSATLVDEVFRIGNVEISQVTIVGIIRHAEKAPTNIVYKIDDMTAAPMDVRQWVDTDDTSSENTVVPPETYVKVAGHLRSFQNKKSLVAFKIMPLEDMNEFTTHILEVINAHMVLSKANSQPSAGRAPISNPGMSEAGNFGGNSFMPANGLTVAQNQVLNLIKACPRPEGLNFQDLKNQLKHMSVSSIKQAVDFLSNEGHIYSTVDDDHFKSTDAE
T2 sequence (P35244 whole entry partner, one chain of several): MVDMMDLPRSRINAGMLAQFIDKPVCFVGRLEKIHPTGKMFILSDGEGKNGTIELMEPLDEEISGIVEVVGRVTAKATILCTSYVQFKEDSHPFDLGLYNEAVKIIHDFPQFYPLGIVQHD

Structure (SMILES) | Effect on the RAD52-dsDNA interaction [1] | Effect on the interaction between RAD52 and RPA proteins [2] | Binding to RAD52 by WaterLOGSY [3] | Cell death after prolonged replication arrest ([4]; BRCA2-depleted cells, HU 18 h) | Cell death ([4]; BRCA2-depleted cells, after replication stress, 1 μM compound) | Cell death after HU+UCN01 ([4]; Ctrl siRNA cells, 1 μM compound) | Dead cells ([4]; checkpoint-deficient, HU treated, 1 μM compound) | Dead cells ([4]; untreated, 1 μM compound) | Effect on MUS81 activity (anaphase bridges) [5]
O=C(O[C@@H]1Cc2c(O)cc(O)cc2O[C@@H]1c1cc(O)c(O)c(O)c1)c1cc(O)c(O)c(O)c1 [Compound 6, Epigallocatechin-3-monogallate] | able to displace dsDNA | no effect | positive WaterLOGSY peaks | – | – | – | – | – | –
Oc1cc(O)c2c(c1)O[C@H](c1cc(O)c(O)c(O)c1)[C@H](O)C2 [Compound ‘1’, (−)-Epigallocatechin] | – | – | – | substantial increase in cell death | ~80% | potentiated the effect of the combined HU+UCN01 treatment | ~60% | approximately 40% | does not affect MUS81 activity
